How the values of series [1] were obtained:
Each polymer (5 mg) was added into a pH buffer (1 mL) and the mixture was sonificated for 2 minutes. Then the mixture was allowed to settle at room temperature for 30 minutes. Solubility was observed by eye and recorded on the scale of 1 to 10, where 1 is highly insoluble, 5 is a cloudy suspension, and 10 is a highly clear solution.

Another series relates to B16F0 melanoma cells. The series can be described thus: In vitro cellular uptake, fluorescence microscopy. The series is classed as cell-based, murine. The protocol: B16F0 cells were purchased from ATCC (CRL-6322, ATCC American Type Culture Collection, Rockville, Md.) and were grown in Dulbecco's modified Eagle's medium (DMEM) with 10% fetal bovine serum and 100 units/mL penicillin. The cells were grown at 37° C. in 5% CO2 environment. The culture medium was removed and discarded. The cells were rinsed with Dulbecco Phosphate Buffer Solution (DPBS), Trypsin-ethylenediaminetetra-acetic acid (EDTA) solution (0.5 ml) was added, and the cells were observed under an inverted microscope to make sure that they were dispersed. Complete growth medium (6.0 to 8.0 ml) was added, and the cells were aspirated by gently pipetting. The cell suspension in appropriate aliquots was transferred to new culture plates. […]
PGA-97-A-Texas Red and Texas Red dye (TR) were separately dissolved in DPBS. […] The treated cells were examined under an OLYMPUS fluorescence microscope, and the excitation and emission wavelengths were measured at 591 and 612 nm, respectively.
Three sample containers containing approximately the same number of B16F0 melanoma cells were incubated with PGA-97-A-Texas Red at 1 μM, PGA-97-A-Texas Red at 0.1 μM, and Texas Red alone at 10 μM, respectively, for 24 hours. Photographs of the in vitro cellular uptake of each container were taken with the camera on an Olympus fluorescence microscope system. […]

Series [2] concerns murine melanoma cells (B16F0) tumor. The series is described as follows: In vivo tumor tissue uptake, syngeneic tumor model, cryostat sections. To be noted: 24 hours after intravenous administration, nu/nu mice. How it is done: Animals: Nu/nu mice, female, 6-8 weeks (22-25 g). Solitary tumors were produced by injecting 2×10^5 murine melanoma cells (B16F0) to the right thigh subcutaneously. 5-7 days later when the tumor reached about 500 mm^3, the PGA-97-A-Texas Red or Texas Red dye was injected intravenously to the tumor.
PGA-97-A-Texas Red and Texas Red were separately dissolved in DPBS and were filtrated through a 0.2 μm filter before being administrated to the animals. 100 μl of PGA-97-A-Texas Red (TR loading at 2.5%) or Texas Red at 0.1-10 mM was intravenously injected to the tumor using the syngeneic tumor model in Example 19. Tumors were dissected, embedded under optimal cutting temperature and frozen in liquid nitrogen. Cryostat sections (6-15 μm) were made and were fixed with 4% paraformaldehyde with 0.03M of sucrose on ice for 10-30 min. The sections were washed 2 times with DPBS, stained with Hoechst 33342 (1 μg/ml) for 10 minutes, and washed again with DPBS. The sections were then mounted with a fluorescent mounting medium (DakoCytomation) and covered with a coverslip. The cryostat sections of the tumor were observed under laser scan confocal microscopy.
Photographs of the cryostat cross-section of in vivo tumor tissue uptake of PGA-97-A-Texas Red and Texas Red dye alone were taken. For each, three different cross-sections were taken for a total of six images. […]

Like-named read-outs stand apart in the source and are kept apart here.

“Poly-(γ-glutamyl)-poly-L-glutamine [PGPG-19,800]”: the Solubility in series [1] (pH 2), in series [1] (pH 3), in series [1] (pH 4), in series [1] (pH 5), in series [1] (pH 6) and in series [1] (pH 7) was 10 each time. The substance also showed a Solubility in series [1] (pH 7.4) of 10.
With Texas Red, the “cellular uptake of Texas red dye” value in the series with B16F0 melanoma cells (0.1 μM to 10 μM, 8-24 hours, fluorescence microscope) was “not”. The “cells that were red (cellular uptake of dye)” value with B16F0 melanoma cells (10 μM, 24 hours, B16F0 melanoma cells) is reported as 0%. Besides, the “accumulation of Texas red dye in tumor cells in vivo” value in series [2] was “not”.

The values are drawn from patent publication US9855338B2, “Polyglutamate-amino acid conjugates and methods” (priority 2005, dated 2018).
